The assay concerns the target T1, PSMA (PC3-PIP cells) (Homo sapiens, UniProt Q04609).
T1 construct: gene FOLH1; full length, on intact PSMA-positive PC3-PIP prostate cancer cells (PC3-Flu as PSMA-negative control)
Briefly: competition with […]Lu-PSMA-617 on cells, gamma counting. In kind it is cell-based. To be noted: read-out: % of control binding at 9000 μM.

T1 sequence (Q04609 whole entry): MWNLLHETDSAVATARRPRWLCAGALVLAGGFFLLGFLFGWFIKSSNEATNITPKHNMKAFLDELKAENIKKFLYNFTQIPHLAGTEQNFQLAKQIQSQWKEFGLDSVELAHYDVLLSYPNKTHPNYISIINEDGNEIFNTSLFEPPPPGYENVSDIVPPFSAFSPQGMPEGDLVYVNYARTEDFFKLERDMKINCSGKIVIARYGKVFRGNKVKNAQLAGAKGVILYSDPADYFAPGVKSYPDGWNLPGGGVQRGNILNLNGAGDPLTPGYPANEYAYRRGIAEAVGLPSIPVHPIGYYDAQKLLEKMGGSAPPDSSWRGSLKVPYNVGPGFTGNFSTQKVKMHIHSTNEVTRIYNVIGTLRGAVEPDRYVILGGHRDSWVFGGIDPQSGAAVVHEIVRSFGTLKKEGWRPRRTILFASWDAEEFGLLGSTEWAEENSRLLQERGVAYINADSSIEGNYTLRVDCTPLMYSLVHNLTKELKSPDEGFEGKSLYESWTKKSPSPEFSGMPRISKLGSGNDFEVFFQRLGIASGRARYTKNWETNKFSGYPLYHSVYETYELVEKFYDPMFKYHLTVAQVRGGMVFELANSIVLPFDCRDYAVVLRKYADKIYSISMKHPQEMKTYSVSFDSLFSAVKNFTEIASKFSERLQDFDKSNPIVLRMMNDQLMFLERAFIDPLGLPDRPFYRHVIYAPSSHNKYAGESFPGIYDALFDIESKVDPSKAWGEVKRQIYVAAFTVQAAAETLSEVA

Take `N[C@@H](CCC(=O)O)C(=O)O` [monosodium glutamate]: the remaining activity at 9000 µM was 24.9 ± 3.64%.

The values are drawn from publication PMC10224201, “Characterization of Non-Specific Uptake and Retention Mechanisms of [^177Lu]Lu-PSMA-617 in the Salivary Glands” (Pharmaceuticals, 2023).
